Source: publication PMC12503911, “Cytotoxicity of Atropisomeric [1,1′‐Binaphthalene]‐2,2′‐Diamines (BINAM) and Analogs in Human Cancer Cells: Enantioselectivity, Structure–Activity Relationships, and Mechanism” (Chemmedchem, 2025)
Read-outs that look alike come from different tables or passages of the source.

Columns and labels:
Assay in all cases: biochemical
Design in all cases: 33PanQinase radiometric kinase activity assay, residual activity in % of control, contract lab Reaction Biology
PLK1 = PLK1 (Homo sapiens, UniProt P53350); conditions: mean of intraexperimental duplicates, n = 1
Protocol: (§1) Kinase Screening was performed at Reaction Biology (Freiburg, Germany) by using the ^33PanQinase Assay.^[ [90] ^] Based on this knowledge, we commissioned a kinase screening by the firm Reaction Biology, targeting those kinases whose inhibition has shown an indirect effect on microtubules. In our selection, we included additional kinases that are known to be involved in centrosome amplification (PLK4^[ [82] ^]), centrosome clustering (CDK1/2,^[ [83] ^] PLK1^[ [84] ^]), spindle multipolarity (SRC^[ [85] ^]), microtubule dynamics (AKT1^[ [86] ^]), and LIMK1/2 activation (ROCK1^[ [87] ^]) or are crucial for the mitosis (BUB1B, NEK2/9, WEE1^[ [88] ^]). Nonetheless, 1(R) and 1(S) at 10 µM had almost no inhibitory effects on any of the chosen kinases (Table 4 ). Only Aurora A (mean residual activity for 1(R): 86%, 1(S): 98%) and ASK1 (mean residual activity for 1(R): 90%, 1(S): 117%) were slightly enantioselectively impacted. However, we theorize that those marginal inhibitions are not explanatory for the antiproliferative and morphological effects of 1(R) on cancer cells.

AuroraC = target: T1, AuroraC (Homo sapiens, UniProt Q9UQB9); conditions: mean of intraexperimental duplicates, n = 1
T1 construct: gene AURKC
T1 sequence (Q9UQB9 1-309): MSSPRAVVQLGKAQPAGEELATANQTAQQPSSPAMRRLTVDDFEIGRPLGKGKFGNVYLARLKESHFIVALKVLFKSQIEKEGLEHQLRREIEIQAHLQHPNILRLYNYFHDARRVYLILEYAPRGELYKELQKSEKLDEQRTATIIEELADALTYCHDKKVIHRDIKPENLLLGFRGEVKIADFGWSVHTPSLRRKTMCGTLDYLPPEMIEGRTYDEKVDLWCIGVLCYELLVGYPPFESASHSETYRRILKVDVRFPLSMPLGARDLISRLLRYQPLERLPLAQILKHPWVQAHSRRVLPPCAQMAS
Protocol: as §1

WEE1 = WEE1 (Homo sapiens, UniProt P30291); conditions: mean of intraexperimental duplicates, n = 1
Protocol: as §1

LIMK1 = LIMK1 (Homo sapiens, UniProt P53667); conditions: mean of intraexperimental duplicates, n = 1; read-out: Residual activities [% of control] / 1(R) 10 µM
Protocol: as §1

AuroraB = target: T2, AuroraB (Homo sapiens, UniProt Q96GD4); conditions: mean of intraexperimental duplicates, n = 1; read-out: Residual activities [% of control] / 1(R) 10 µM
T2 construct: gene AURKB
Protocol: as §1

ASK1 = target: T3, ASK1 (Homo sapiens, UniProt Q99683); conditions: mean of intraexperimental duplicates, n = 1; read-out: Residual activities [% of control] / 1(S) 10 µM
T3 construct: gene MAP3K5
T3 sequence (Q99683 1-1374): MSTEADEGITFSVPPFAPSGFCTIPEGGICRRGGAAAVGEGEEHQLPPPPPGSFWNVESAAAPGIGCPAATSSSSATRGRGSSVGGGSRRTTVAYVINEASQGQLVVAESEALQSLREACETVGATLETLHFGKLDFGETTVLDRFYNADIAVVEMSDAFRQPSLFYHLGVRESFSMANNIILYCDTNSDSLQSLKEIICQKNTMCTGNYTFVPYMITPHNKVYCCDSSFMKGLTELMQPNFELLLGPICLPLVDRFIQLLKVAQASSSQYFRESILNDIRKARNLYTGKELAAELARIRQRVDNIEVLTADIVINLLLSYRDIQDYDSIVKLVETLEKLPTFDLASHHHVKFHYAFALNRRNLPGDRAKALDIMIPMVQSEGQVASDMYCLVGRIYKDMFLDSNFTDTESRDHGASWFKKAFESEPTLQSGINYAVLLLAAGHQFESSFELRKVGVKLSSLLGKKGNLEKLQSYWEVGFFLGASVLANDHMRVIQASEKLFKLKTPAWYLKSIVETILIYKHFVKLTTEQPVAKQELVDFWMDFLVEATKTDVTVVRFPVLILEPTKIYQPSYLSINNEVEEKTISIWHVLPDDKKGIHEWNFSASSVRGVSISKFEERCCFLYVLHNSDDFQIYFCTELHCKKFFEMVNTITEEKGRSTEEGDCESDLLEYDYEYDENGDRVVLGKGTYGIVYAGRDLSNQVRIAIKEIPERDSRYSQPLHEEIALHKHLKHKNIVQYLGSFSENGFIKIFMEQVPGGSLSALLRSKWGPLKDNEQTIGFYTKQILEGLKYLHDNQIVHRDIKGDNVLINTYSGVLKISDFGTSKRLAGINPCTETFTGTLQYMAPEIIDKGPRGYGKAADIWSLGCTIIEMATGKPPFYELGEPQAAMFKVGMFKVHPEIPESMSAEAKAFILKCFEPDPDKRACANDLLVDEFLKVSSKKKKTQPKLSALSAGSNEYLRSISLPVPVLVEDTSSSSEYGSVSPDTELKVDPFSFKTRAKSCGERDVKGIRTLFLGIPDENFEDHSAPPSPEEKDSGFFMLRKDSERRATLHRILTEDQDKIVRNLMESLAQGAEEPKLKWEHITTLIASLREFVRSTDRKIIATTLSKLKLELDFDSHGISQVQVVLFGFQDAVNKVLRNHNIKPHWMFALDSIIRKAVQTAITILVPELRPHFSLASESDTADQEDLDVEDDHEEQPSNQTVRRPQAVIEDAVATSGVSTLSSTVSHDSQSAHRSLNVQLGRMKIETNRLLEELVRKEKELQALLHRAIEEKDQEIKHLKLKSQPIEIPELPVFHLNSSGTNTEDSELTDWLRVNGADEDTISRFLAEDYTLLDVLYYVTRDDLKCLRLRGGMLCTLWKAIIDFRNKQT
Protocol: as §1

[1] = read-out: Residual activities [% of control] / 1(R) 10 µM
[2] = read-out: Residual activities [% of control] / 1(S) 10 µM

Chain of PLK1 (P53350 whole entry): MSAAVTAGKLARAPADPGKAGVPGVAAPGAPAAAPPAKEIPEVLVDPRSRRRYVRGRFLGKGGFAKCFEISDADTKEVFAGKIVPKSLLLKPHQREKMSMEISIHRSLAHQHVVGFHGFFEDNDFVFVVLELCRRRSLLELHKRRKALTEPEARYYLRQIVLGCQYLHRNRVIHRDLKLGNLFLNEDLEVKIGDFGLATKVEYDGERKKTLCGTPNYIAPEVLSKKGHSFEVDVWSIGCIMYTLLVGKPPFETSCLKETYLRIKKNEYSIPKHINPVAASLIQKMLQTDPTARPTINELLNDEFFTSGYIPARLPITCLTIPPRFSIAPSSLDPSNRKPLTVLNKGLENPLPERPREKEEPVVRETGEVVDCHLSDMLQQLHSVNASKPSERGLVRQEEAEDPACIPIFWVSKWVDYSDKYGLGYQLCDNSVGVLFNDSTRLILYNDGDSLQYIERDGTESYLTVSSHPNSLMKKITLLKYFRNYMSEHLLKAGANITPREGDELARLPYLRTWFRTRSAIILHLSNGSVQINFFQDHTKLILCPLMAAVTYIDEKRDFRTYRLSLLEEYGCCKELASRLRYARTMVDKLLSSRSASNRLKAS
Chain of WEE1 (P30291 whole entry): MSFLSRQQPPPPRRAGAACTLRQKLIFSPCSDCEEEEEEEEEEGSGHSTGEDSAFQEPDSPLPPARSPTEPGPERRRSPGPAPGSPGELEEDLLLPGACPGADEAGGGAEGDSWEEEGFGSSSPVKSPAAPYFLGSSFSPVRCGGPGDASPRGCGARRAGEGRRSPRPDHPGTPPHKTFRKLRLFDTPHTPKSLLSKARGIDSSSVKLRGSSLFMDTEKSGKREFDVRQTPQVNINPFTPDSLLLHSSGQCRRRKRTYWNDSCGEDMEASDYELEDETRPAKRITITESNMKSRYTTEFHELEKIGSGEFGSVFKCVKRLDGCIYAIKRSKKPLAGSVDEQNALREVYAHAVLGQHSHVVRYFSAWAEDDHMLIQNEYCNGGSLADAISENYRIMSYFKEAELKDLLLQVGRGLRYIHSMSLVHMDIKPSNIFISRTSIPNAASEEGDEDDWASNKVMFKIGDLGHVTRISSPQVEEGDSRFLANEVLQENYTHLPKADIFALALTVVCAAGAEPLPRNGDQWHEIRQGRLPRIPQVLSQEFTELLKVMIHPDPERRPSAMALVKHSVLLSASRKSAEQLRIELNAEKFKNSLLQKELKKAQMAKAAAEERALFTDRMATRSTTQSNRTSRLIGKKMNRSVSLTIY
Chain of LIMK1 (P53667 whole entry): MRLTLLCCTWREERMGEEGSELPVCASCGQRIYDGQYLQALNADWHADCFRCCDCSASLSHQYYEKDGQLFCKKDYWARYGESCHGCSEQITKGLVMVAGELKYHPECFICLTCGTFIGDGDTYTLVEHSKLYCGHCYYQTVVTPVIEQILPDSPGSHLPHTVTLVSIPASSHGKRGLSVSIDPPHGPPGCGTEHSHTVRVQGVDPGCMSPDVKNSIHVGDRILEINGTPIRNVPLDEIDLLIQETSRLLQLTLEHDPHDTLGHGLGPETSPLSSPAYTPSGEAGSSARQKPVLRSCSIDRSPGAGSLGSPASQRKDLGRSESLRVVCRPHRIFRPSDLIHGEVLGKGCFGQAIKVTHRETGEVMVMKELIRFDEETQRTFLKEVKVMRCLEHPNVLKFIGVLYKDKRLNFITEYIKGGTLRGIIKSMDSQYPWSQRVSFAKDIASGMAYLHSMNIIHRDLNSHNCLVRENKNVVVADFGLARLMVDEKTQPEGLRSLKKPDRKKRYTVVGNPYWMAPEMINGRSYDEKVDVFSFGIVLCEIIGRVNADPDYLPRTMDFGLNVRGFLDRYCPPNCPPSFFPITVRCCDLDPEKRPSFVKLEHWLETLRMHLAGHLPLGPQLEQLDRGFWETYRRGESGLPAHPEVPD
T2 sequence (Q96GD4 whole entry): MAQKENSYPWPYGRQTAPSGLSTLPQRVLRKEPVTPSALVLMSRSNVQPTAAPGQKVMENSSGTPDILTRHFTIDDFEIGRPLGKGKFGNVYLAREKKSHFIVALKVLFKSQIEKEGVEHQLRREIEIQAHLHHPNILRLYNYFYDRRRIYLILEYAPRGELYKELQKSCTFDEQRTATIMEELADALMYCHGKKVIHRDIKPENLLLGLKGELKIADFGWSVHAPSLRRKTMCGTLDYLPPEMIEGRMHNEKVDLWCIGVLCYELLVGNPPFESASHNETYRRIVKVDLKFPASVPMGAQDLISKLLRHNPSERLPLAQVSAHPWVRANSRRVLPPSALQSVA

Row | remaining activity at 10 µM (PLK1; [1]) [%] | remaining activity at 10 µM (AuroraC; [1]) [%] | remaining activity at 10 µM (WEE1; [1]) [%] | remaining activity at 10 µM (LIMK1) [%] | remaining activity at 10 µM (AuroraB) [%] | remaining activity at 10 µM (PLK1; [2]) [%] | remaining activity at 10 µM (AuroraC; [2]) [%] | remaining activity at 10 µM (WEE1; [2]) [%] | remaining activity at 10 µM (ASK1) [%] | SMILES
1 | 95 | 101 | 99 | 103 | 101 |  |  |  |  | Nc1ccc2ccccc2c1-c1c(N)ccc2ccccc12 [1(R), (R)‐[1,1′‐binaphthalene]‐2,2′‐diamine]
2 |  |  |  |  |  | 91 | 100 | 98 | 117 | Nc1ccc2ccccc2c1-c1c(N)ccc2ccccc12 [1(S), S‐BINAM]
